Drawing on patent US7166635B2, “3-imino-2-indolones for the treatment of depression and/or anxiety” (H. Lundbeck A/S, priority 2002, dated 2007), this text covers Ki for ten compounds.

Broadly, the Ki is the equilibrium dissociation constant of an inhibitor or competing ligand from its target. Low readings indicate higher affinity, high ones lower affinity.

This assay addresses T1, human GalR3 receptor (Homo sapiens, UniProt O60755).
T1 construct: expressed in transfected cells; membranes
T1 sequence (O60755 1-368): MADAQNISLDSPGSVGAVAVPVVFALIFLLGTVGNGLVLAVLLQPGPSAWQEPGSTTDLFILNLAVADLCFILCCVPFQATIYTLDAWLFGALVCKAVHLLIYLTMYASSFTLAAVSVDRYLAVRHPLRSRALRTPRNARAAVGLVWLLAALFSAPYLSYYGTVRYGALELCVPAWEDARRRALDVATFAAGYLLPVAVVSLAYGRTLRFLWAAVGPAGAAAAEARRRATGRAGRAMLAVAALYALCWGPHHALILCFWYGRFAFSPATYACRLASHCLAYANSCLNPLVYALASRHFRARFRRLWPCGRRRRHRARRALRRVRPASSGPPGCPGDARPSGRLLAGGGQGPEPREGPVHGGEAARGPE
The assay is described as follows: Radioligand binding at cloned human GalR3 receptor. To be noted: Binding Data; membranes of LM(tk-) cells stably transfected with human GalR3. How it is done: The present invention provides for a method of determining the binding affinity of a GalR3 antagonist, wherein the GalR3 antagonist is dissolved in a “suitable solvent”. A “suitable solvent” means one which permits the measurement of binding affinity of the GalR3 antagonist to the human GalR3 receptor at concentrations less than 1 μM, preferably less than 100 nM. Examples of solvents include, but are not limited to, DMSO, ethanol, N,N-dimethylacetamide, or water. For indolones, the preferred solvent is 3% DMSO (final concentration in the assay). For any other type of compounds, the preferred solvent is the solvent which permits the measurement of binding affinity of a GalR3 antagonist at the lowest concentration.
COS-7 cells were grown on 150 mm plates in D-MEM with supplements (Dulbecco's Modified Eagle Medium with 10% bovine calf serum, 4 mM glutamine, 100 units/ml penicillin, 100 μg/ml streptomycin) at 37° C. with 5% CO2. Stock plates of COS-7 cells were trypsinized and split 1:6 every 3–4 days. Human embryonic kidney 293 cells were grown on 150 mm plates in D-MEM with supplements (minimal essential medium) with Hanks' salts and supplements (Dulbecco's Modified Eagle Medium with 10% bovine calf serum, 4 mM glutamine, 100 units/ml penicillin, 100 μg/ml streptomycin) at 37° C. with 5% CO2. Stock plates of 293 cells were trypsinized and split 1:6 every 3–4 days. Mouse fibroblast LM(tk-) cells were grown on 150 mm plates in D-MEM with supplements (Dulbecco's Modified Eagle Medium with 10% bovine calf serum, 4 mM glutamine, 100 units/mL penicillin, 100 μg/mL streptomycin) at 37° C. with 5% CO2. Stock plates of LM(tk-) cells were trypsinized and split 1:10 every 3–4 days. Chinese Hamster Ovary (CHO) cells were grown on 150 mm plates in HAM's F12 medium with (HAM's F-12 with 10% bovine calf serum, 4 mM glutamine, 100 units/mL penicillin, 100 μg/mL streptomycin) at 37° C. with 5% CO2. Stock plates of CHO cells were trypsinized and split 1:8 every 3–4 days. LM(tk-) cells were stably transfected with the human GalR3 receptor.
cDNAs for the human and rat GalR3 receptors were transfected with a G-418 resistant gene into the mouse fibroblast LM(tk-) cell line by a calcium phosphate transfection method (Cullen, 1987).
Membranes were harvested from stably transfected LM(tk-) cells. Adherent cells were washed twice in ice-cold phosphate buffered saline (138 mM NaCl, 8.1 mM Na2HPO4, 2.5 mM KCl, 1.2 mM KH2PO4, 0.9 mM CaCl2, 0.5 mM MgCl2, pH 7.4) and lysed by sonication in ice-cold sonication buffer (20 mM Tris-HCl, 5 mM EDTA, pH 7.7). Large particles and debris were cleared by low speed centrifugation (200×g, 5 min, 4° C.). Membranes were collected from the supernatant fraction by centrifugation (32,000×g, 18 min, 4° C.), washed with ice-cold hypotonic buffer, and collected again by centrifugation (32,000×g, 18 min, 4° C.). The final membrane pellet was resuspended by sonication into a small volume of ice-cold binding buffer (˜1 ml for every 5 plates: 10 mM NaCl, 20 mM HEPES, 0.22 mM KH2PO4, 1.26 mM CaCl2, 0.81 mM MgSO4, pH 7.4). Protein concentration was measured by the Bradford method (Bradford, 1976) using Bio-Rad Reagent, with bovine serum albumin as a standard. Membranes were held on ice for up to one hour and used fresh, or flash frozen and stored in liquid nitrogen. Membranes were prepared similarly from CHO cells.
The methods to obtain the cDNA of the receptors, express said receptors in heterologous systems, and carry out assays to determine binding affinity are described as follows.
Binding assays were performed according to the following published method: human GALR3 (PCT International Publication No. WO 98/15570).

`COc1ccc(N2C(=O)/C(=N\c3ccc(Cl)c(Cl)c3)c3ccccc32)cn1` [Example 2, 3-[(3,4-DICHLOROPHENYL)IMINO]-1-(6-METHOXY-3-PYRIDINYL)-1,3-DIHYDRO-2H-INDOL-2-ONE] registered a Ki of 15 nM. This lies in the double-digit nanomolar range.

For the compound `O=C1/C(=N\c2cccc(C(F)(F)F)c2)c2cc(O)ccc2N1c1ccccc1` [Example 9, 5-HYDROXY-1-PHENYL-3-{[3-(TRIFLUOROMETHYL)PHENYL]IMINO}-1,3-DIHYDRO-2H-INDOL-2-ONE], the Ki stood at 58 nM.

In turn, `O=C1/C(=N\c2cccc(C(F)(F)F)c2)c2ccccc2N1c1cccc(O)c1` [Example 7, 1-(3-HYDROXYPHENYL)-3-{[3-(TRIFLUOROMETHYL)PHENYL]IMINO}-1,3-DIHYDRO-2H-INDOL-2-ONE] gave a Ki of 28 nM. Against the preceding compound, the Ki is about 2.1-fold lower.

`O=C1/C(=N\c2cccc(C(F)(F)F)c2)c2ccc(O)cc2N1c1ccccc1` [Example 4, 6-HYDROXY-1-PHENYL-3-{[3-(TRIFLUOROMETHYL)PHENYL]IMINO}-1,3-DIHYDRO-2H-INDOL-2-ONE] returned a Ki of 55 nM.

The compound `COc1ccc(N2C(=O)/C(=N\c3cccc(C(F)(F)F)c3)c3ccccc32)cn1` [Example 10, 3-[(3-TRIFLUOROMETHYLPHENYL)IMINO]-1-(6-METHOXY-3-PYRIDINYL)-1,3-DIHYDRO-2H-INDOL-2-ONE] showed a Ki of 31 nM.

Compound `O=C1/C(=N\c2cccc(C(F)(F)F)c2)c2ccccc2N1c1ccccc1O` [Example 8, 1-(2-HYDROXYPHENYL)-3-{[3-(TRIFLUOROMETHYL)PHENYL]IMINO}-1,3-DIHYDRO-2H-INDOL-2-ONE] displayed a Ki of 68 nM.

`O=C1/C(=N\c2cc(F)cc(F)c2)c2ccccc2N1c1ccc(O)cc1` [Example 6, 3-[(3,5-DIFLUOROPHENYL)IMINO]-1-(4-HYDROXYPHENYL)-1,3-DIHYDRO-2H-INDOL-2-ONE] returned a Ki of 41 nM.

`O=C1/C(=N\c2ccc3c(c2)OC(F)(F)O3)c2ccccc2N1c1ccc(O)cc1` [Example 1, 3-[(2,2-DIFLUORO-1,3-BENZODIOXOL-5-YL)IMINO]-1-(4-HYDROXYPHENYL)-1,3-DIHYDRO-2H-INDOL-2-ONE] came in with a Ki of 72 nM.

Compound `COc1ccc(N2C(=O)C(=Nc3ccc(Cl)c(Cl)c3)c3cc(Cl)ccc32)cn1` (racemic) [Example 3, 5-CHLORO-3-[(3,4-DICHLOROPHENYL)IMINO]-1-(6-METHOXY-3-PYRIDINYL)-1,3-DIHYDRO-2H-INDOL-2-ONE] gave a Ki of 20 nM.

With `O=C1/C(=N\c2ccc(Cl)c(Cl)c2)c2ccccc2N1c1ccc(O)cc1` [Example 5, 3-[(3,4-DICHLOROPHENYL)IMINO]-1-(4-HYDROXYPHENYL)-1,3-DIHYDRO-2H-INDOL-2-ONE], the affinity, expressed as Ki, was 27 nM.
